Activity calls are given as the source filed them.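 How the source made its calls: active means IC50 of 15 µM or lower, and residual activity at the IC50 concentration no higher than 60%; inactive means the rest.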

The target in this assay is Ubiquitin carboxyl-terminal hydrolase BAP1 (Homo sapiens) (UniProt Q92560). The assay is described as follows: BAP1 deubiquitinase inhibition, substrate comparison – biochemical, Ub-AMC versus Ub-rhodamine substrates, dose response (AID 1068). Conditions: recombinant BAP1, Ub-rhodamine hydrolysis fluorescence.
[1] abbreviates: measured here: Ub-AMC substrate assay.

Chain of Ubiquitin carboxyl-terminal hydrolase BAP1 (Homo sapiens) (Q92560 whole entry, looked up): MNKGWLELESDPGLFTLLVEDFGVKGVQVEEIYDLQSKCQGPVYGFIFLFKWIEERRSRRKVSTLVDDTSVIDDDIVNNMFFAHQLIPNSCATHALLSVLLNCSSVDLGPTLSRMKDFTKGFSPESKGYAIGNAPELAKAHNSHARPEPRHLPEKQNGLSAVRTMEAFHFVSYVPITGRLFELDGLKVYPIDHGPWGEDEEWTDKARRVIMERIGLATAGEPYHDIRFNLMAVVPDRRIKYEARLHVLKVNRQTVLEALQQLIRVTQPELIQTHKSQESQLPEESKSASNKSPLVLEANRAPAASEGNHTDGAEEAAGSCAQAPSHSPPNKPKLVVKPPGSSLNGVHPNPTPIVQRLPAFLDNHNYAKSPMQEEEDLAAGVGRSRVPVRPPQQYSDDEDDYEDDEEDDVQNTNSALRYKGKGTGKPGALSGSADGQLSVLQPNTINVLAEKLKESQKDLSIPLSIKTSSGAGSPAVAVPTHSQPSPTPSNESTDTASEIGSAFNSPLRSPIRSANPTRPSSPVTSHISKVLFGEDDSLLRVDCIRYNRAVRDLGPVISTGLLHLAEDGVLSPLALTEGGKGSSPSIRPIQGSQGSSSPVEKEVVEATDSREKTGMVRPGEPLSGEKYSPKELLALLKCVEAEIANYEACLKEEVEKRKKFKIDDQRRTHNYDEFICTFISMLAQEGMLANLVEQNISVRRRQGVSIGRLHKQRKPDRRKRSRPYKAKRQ

As for `COC(=O)c1ccc(NC(=O)CSc2nc(C)cc(=O)[nH]2)cc1`, the result was inactive. For the same compound, the IC50 under setting [1] was greater than 100 µM.
Consider `Cc1cccc2cc(C(c3nnnn3C(C)(C)C)N3CCN(C(=O)c4ccco4)CC3)c(=O)[nH]c12` (stereo not drawn), for which the IC50 was < 0.78 µM (inactive). For the same compound, the IC50 under setting [1] was 55.7 µM.
`O=C(NCc1ccccn1)c1cc2nc(-c3ccc4c(c3)OCO4)cc(C(F)(F)F)n2n1`: the outcome was inactive. Also, under setting [1], the concentration for half-maximal inhibition (IC50) was greater than 100 µM.
The matching figures for `CCc1cc(=O)[nH]c(SCC(=O)Nc2ccc(C(=O)OC)cc2)n1`: “inactive” and greater than 100 µM.
Regarding `O=C(Nc1cccc(O)c1)c1ccccc1-c1nc(-c2cccc(Cl)c2)no1`, the IC50 entry is “inactive”. Further, under setting [1], the IC50 was determined as 27.1 µM.
The matching figures for `Cc1cccc2cc(C(c3nn[nH]n3)N3CCN(C(=O)OC(C)(C)C)CC3)c(=O)[nH]c12` (stereo not drawn): > 100 µM (inactive) and 38.9 µM.
In the case of `COc1cc(-c2nnc(SCC(=O)Nc3sc(C)c(C)c3C#N)o2)cc(OC)c1OC`, the result was inactive. For the same compound, the half-maximal inhibitory concentration (IC50) under setting [1] is 2.32 µM.
Turning to `O=C(O)c1ccccc1-c1nc(-c2cccc(Cl)c2)no1`, the IC50 was > 100 µM (inactive). Moreover, the IC50 under setting [1] came to 58.8 µM.
In the same order, the values of `Cc1sc(NC(=O)CSc2nnc(-c3ccc(Cl)cc3)o2)c(C#N)c1C` are 9.54 µM and 37.4 µM.
In the same order, the values of `O=C(NCc1ccco1)c1cc2nc(-c3ccc4c(c3)OCO4)cc(C(F)(F)F)n2n1` are “inactive” and greater than 100 µM.
In the same order, the values of `Cc1oc(NC(=O)CSc2n[nH]c(-c3ccc(F)cc3)n2)c(C#N)c1C` are > 100 µM (inactive) and 46.5 µM.
Turning to `COc1ccccc1NC(=O)c1ccccc1-c1nc(-c2ccc(Cl)cc2)no1`, the IC50 entry is “inactive”. Also, the IC50 under setting [1] came to 40.1 µM.
In the same order, the values of `O=C(O)c1ccccc1-c1nc(-c2ccc(Cl)cc2)no1` are “inactive” and 1.31 µM.
In the same order, the values of `Cc1ccc(-c2c(C)sc(NC(=O)CSc3nnc(-c4ccccc4)o3)c2C#N)cc1C` are “inactive” and 69.8 µM.
On to `Cc1cccc2cc(C(c3nnnn3C(C)(C)C)N3CCN(C(=O)OC(C)(C)C)CC3)c(=O)[nH]c12` (stereo not drawn), for which the IC50 is > 100 µM (inactive). In addition, the half-maximal inhibitory concentration (IC50) under setting [1] is greater than 100 µM.
As for `CCc1ccc(NC(=O)CSc2nc(C)cc(=O)[nH]2)cc1`, the outcome was inactive. For the same compound, the half-maximal inhibitory concentration (IC50) under setting [1] came to 5.62 µM.
For `Cc1sc(NC(=O)CSc2nnc(-c3ccc(Cl)cc3)o2)c(C#N)c1-c1ccc(F)cc1`, the concentration for half-maximal inhibition (IC50) was 5.51 µM. In addition, the half-inhibitory concentration (IC50) under setting [1] was greater than 100 µM.
In the same order, the values of `O=C(NCc1cccs1)c1cc2nc(-c3ccc4c(c3)OCO4)cc(C(F)(F)F)n2n1` are “inactive” and 44.7 µM.
The matching figures for `Cc1cccc2cc(C(C#N)N3CCNCC3)c(=O)[nH]c12` (stereo not drawn): “inactive” and 1.55 µM.
As for `Cc1sc(NC(=O)CSc2nc3ncnc(N)c3[nH]2)c(C#N)c1C`, the result was inactive. The IC50 under setting [1] was greater than 100 µM.
As for `Cc1sc(NC(=O)CSc2n[nH]c(-c3ccc(O)cc3)n2)c(C#N)c1-c1ccc(F)cc1`, the IC50 was 9.11 µM. Moreover, the IC50 under setting [1] stood at 15.3 µM.
With `Cc1sc(NC(=O)CSc2nnc(-c3ccc(F)cc3)o2)c(C#N)c1C`, the IC50 result is “inactive”. For the same compound, the IC50 under setting [1] is 99.7 µM.
In the same order, the values of `N#Cc1c(NC(=O)CSc2nnc(-c3ccc(Cl)cc3)o2)sc2c1CCCC2` are “inactive” and greater than 100 µM.
In the same order, the values of `COc1cccc(NC(=O)c2ccccc2-c2nc(-c3ccc(Cl)cc3)no2)c1` are “inactive” and 39.9 µM.
In the same order, the values of `Cc1ccc(-c2c(C)sc(NC(=O)CSc3nnc(-c4ccc(Cl)cc4)o3)c2C#N)cc1C` are 13.5 µM and 32.6 µM.
With `Cc1sc(NC(=O)CSc2nnc(-c3ccccc3)o2)c(C#N)c1-c1ccc(F)cc1`, the half-inhibitory concentration (IC50) is 12.5 µM. Moreover, the IC50 under setting [1] came to 32.1 µM.
On to `CCCc1cc(=O)[nH]c(SCC(=O)Nc2ccc(C(=O)OC)cc2)n1`, for which the result was inactive. The 50% inhibitory concentration (IC50) under setting [1] was greater than 100 µM.
Turning to `Cc1cccc2cc(C(c3nnnn3C(C)(C)C)N3CCNCC3)c(=O)[nH]c12` (stereo not drawn), the IC50 result was “inactive”. Under setting [1], the IC50 was greater than 100 µM.
The matching figures for `Cc1ccc(-c2c(C)sc(NC(=O)CSc3nnc(-c4ccc(F)cc4)o3)c2C#N)cc1C`: 10 µM and 37 µM.
In the same order, the values of `Cc1sc(NC(=O)CSc2nnc(-c3ccccc3)o2)c(C#N)c1C` are “inactive” and 47.8 µM.
The matching figures for `COc1cc(-c2nnc(SCC(=O)Nc3sc(C)c(-c4ccc(F)cc4)c3C#N)o2)cc(OC)c1OC`: “inactive” and 39.6 µM.
`Cc1cccc2cc(C(C#N)N3CCN(C(=O)OC(C)(C)C)CC3)c(=O)[nH]c12` (stereo not drawn): the IC50 entry was “inactive”. Also, the IC50 under setting [1] is greater than 100 µM.
In the same order, the values of `N#Cc1c(NC(=O)CSc2nnc(-c3ccc(F)cc3)o2)sc2c1CCCC2` are “inactive” and 41.7 µM.
The matching figures for `COc1cccc(NC(=O)c2ccccc2-c2nc(-c3cccc(Cl)c3)no2)c1`: “inactive” and 37.5 µM.

The values above are taken from PubChem BioAssay AID1068 (Emory University Molecular Libraries Screening Center, 2008).
